In patent publication US20230270764A1, “COMPOSITION COMPRISING CANNABINOIDS, TERPENES, AND FLAVONOIDS FOR TREATING DEPRESSION” (priority 2020, published 2023):

What was measured:
LPS-injected mice = experiment: Sucrose preference test in the LPS-induced model of depression; type: in vivo
BV2 microglial cells [1] = experiment: LPS-induced TNFα secretion by BV2 microglia cell cultures (ELISA); type: cell-based, murine; conditions: for IC50: Mus musculus
Protocol: (§1) The BV2 murine microglial cell line is used in these studies.
(§2) The BV2 cells are cultured at 37° C. in a humidified atmosphere with 5% CO2 in high D-glucose (4.5 g/L) Dulbecco’s modified Eagle’s medium (Sigma, Rehovot, Israel) supplemented with 5% heat-inactivated fetal bovine serum, streptomycin (100 µg/ml), and penicillin (100 units/ml) and sodium pyruvate (1 mM; all from Biological Industries Ltd., Kibbutz Beit Haemek, Israel). 24 hours before experiments with LPS stimulation, the BV2 cells are split into 24 well plates, 2×10^5 cells per well, covered with 1 ml of growth medium and allowed to attach overnight. 24 hr before experiments with α-synuclein, the BV2 cells are split into 96-well plates, 50,000 (5×10^4) cells per well, covered with 200 µl of growth medium and allowed to attach overnight. Cultures of BV2 microglia cells are first treated by an individual cannabinoid, or terpene or flavonoid selected from: Cannabidiol (CBD), Δ-9-tetrahydrocannabinol (THC), Δ-8-tetrahydrocannabinol (THC), cannabigerol (CBG), cannabichromene (CBC), cannabigerolic acid (CBGA), Cannabidiolic acid (CBDA), THC acid (THCA), cannabichromenic Acid (CBCA), Cannabidivarin (CBDV), tetrahydrocannabivarin (THCV), Cannabichromevarin (CBCV), Cannabichromerocin ([…]), Cannabivarin (CBV), Cannabicitran (CBT), Cannabinol (CBN), Cannabicyclol (CBL), Cannabigerorcin (CBGO), Cannabinodiol (CBND), β-caryophyllene, β-elemene, β-myrcene, linalool, α-pinene, β-pinene, eucalyptol, alpha-terpineol, valencene, geraniol (lemonol), bisabolol, nerolidol, ocimene, terpinolene, humulene, α-terpinene, camphene, fenchol, α-phellandrene, Δ3-carene, γ-cardinene, sabinene, limonene, β-amyrin, cycloartenol, cannflavin A, cannflavin B, kaempferol, quercetin, luteolin, apigenin, canniprene, orientin, β-sitosterol, vitexin, isovitexin, and chrysin. Additional cultures of BV2 microglia cells are treated by an individual cannabinoid, with at least one additional cannabinoid, and/or terpene, and/or flavonoid, and/or celecoxib. Additional cultures are exposed to the vehicle of these compounds (cremophor, ethanol and PBS, 1:1:18 (v/v/v)) (FIG. 2A). In some studies, cultures of BV2 microglia cells are treated by a specific whole plant cannabis extract, with or without supplementation with cannabinoid(s), and/or terpene(s) and/or flavonoid(s), and/or celecoxib (FIG. 2B).
For each individual cannabinoid mentioned above, 3-4 concentrations are used, ranging from 0.1 to 10 µM. For ultra-low dose Δ9-THC the concentration used is 0.01 µM. […] For celecoxib, 3-4 concentrations are used, ranging from 0.1 to 10 µM. Two hours following the treatment, the cultures are exposed to one of the following microglia stimulators: LPS (Sigma L2630; Escherichia coli serotype O111:B4) is dissolved in D-PBS (Sigma, D8537) to a pre-stock concentration of 1 mg/ml, aliquoted and stored at -80° C. Stock solution of LPS at 10 ug/ml is prepared using sterile D-PBS, followed by filtering via 0.22 µm filter membrane, aliquoting and storing in -20° C. LPS is applied into the cell medium at a final concentration of 100 ng/ml. Poly I:C (Sigma, P1530) was first dissolved in sterile, molecular grade water to the concentration of 10 mg/ml (following the manufacturer’s instructions). This stock solution was further diluted to the concentration of 1 mg/ml in sterile PBS, and the aliquots stored in -20 °C.

BV2 microglial cells [2] = experiment: LPS-induced IL-1β release by BV2 microglia cell cultures (ELISA); type: cell-based, murine; conditions: for IC50: Mus musculus
Protocol: as §1, §2
For each individual cannabinoid mentioned above, 3-4 concentrations are used, ranging from 0.1 to 10 µM. For ultra-low dose Δ9-THC the concentration used is 0.01 µM. For each individual terpene or flavonoid mentioned above, 3-4 concentrations are used, ranging from 1 to 50 µM. For celecoxib, 3-4 concentrations are used, ranging from 0.1 to 10 µM. Two hours following the treatment, the cultures are exposed to one of the following microglia stimulators: LPS (Sigma L2630; Escherichia coli serotype O111:B4) is dissolved in D-PBS (Sigma, D8537) to a pre-stock concentration of 1 mg/ml, aliquoted and stored at -80° C. Stock solution of LPS at 10 ug/ml is prepared using sterile D-PBS, followed by filtering via 0.22 µm filter membrane, aliquoting and storing in -20° C. LPS is applied into the cell medium at a final concentration of 100 ng/ml. Poly I:C (Sigma, P1530) was first dissolved in sterile, molecular grade water to the concentration of 10 mg/ml (following the manufacturer’s instructions). This stock solution was further diluted to the concentration of 1 mg/ml in sterile PBS, and the aliquots stored in -20 °C.

[3] = adult (6-9 months-old) male mice, acute CBD
[4] = young-adult male mice, CBD 30 mg/kg i.p. 3 consecutive days

SMILES: C=C(C)[C@@H]1CCC(C)=C[C@H]1c1c(O)cc(CCCCC)cc1O [CBD, cannabidiol]
- sucrose preference vs vehicle-LPS group (LPS-injected mice; Example 18, celecoxib 10, 20, 30 mg/kg or CBD 30 mg/kg by themselves): no significant effects
- sucrose consumption, LPS-injected groups (LPS-injected mice; [3]): significant difference between the CBD- and vehicle-treated group
- sucrose preference (LPS-injected mice; [3]): reduction in the negative effect of LPS on sucrose preference
- sucrose preference and sucrose consumption (LPS-injected mice; adult and young adult female mice, acute CBD, saline or LPS): None of these parameters was influenced by treatment with CBD
- sucrose preference compared with the saline-injected control group (LPS-injected mice; adult female mice, LPS, CBD 30 mg/kg, CBD 30 mg plus kaempferol 60 mg): significantly reduced sucrose preference
- LPS-induced decreases in sucrose preference and sucrose consumption (LPS-injected mice; young adult (2.5-3 months old) male mice, acute CBD): None of these parameters was influenced by treatment with CBD
- sucrose consumption, main effect of CBD (LPS-injected mice; young-adult female mice, acute CBD, difference among saline-injected mice): significantly reduced
- LPS-induced reduction in sucrose consumption (LPS-injected mice; [4]): no effect
- LPS-induced suppression of sucrose preference (LPS-injected mice; [4]): completely reversed
- levels of TNFα compared to cultures treated with vehicle and LPS (BV2 microglial cells [1]; 24-hours incubation, CBD 10 but not 1 µM, linalool 100 but not 25 µM, kaempferol dose-dependently at 10, 25 and 50 µM, quercetin 10 and 25 but not 5 µM): reduced
- release of TNFα (BV2 microglial cells [1]; Example 3, 10 µM (not 1, 2.5 or 5 µM)): significantly inhibited
- release of TNFα vs LPS-activated cultures treated with vehicle (BV2 microglial cells [1]; Example 4, by itself at 1, 2.5 and 5 µM): no effects
- TNFα secretion from LPS activated microglial cells (BV2 microglial cells [1]; Example 5, CBD 5 µM alone (p<0.05)): decreased the TNFα secretion
- release of TNFα vs LPS-activated cultures treated with vehicle (BV2 microglial cells [1]; Example 5, by themselves, CBD 1 and 2.5 µM, quercetin 1, 2.5 and 5 µM): did not affect
- release of TNFα vs LPS-activated cultures treated with vehicle (BV2 microglial cells [1]; Example 6, by itself, CBD 1, 2.5 and 5 µM, CBDV 1, 2.5, 5 and 10 µM): no concentration of either CBD or CBDV by itself affected release of TNFα
- inhibition of LPS-induced TNFα secretion (BV2 microglial cells [1]; Example 7, by themselves): did not produce significant inhibition
- LPS-induced TNFα release (BV2 microglial cells [1]; Example 25, LPS 100 ng/ml, CannA 5 and 10 µM, CBD and CannB only at 10 µM, CannC 1-10 µM, extract concentration as dominant cannabinoid): significantly inhibited
- IC50 (BV2 microglial cells [1]; BV-2, read-out: CBD IC50, LPS-induced TNFα release, Example 4, addition of 1 µM kaempferol): 2.3 µM
- IC50 (BV2 microglial cells [1]; BV-2, read-out: CBD IC50, LPS-induced TNFα release, Example 4, addition of 2.5 µM kaempferol): 1.3 µM
- IC50 (BV2 microglial cells [1]; BV-2, read-out: CBD IC50, LPS-induced TNFα release, Example 4, addition of 5 µM kaempferol): 0.8 µM
- IC50 (BV2 microglial cells [1]; BV-2, read-out: CBD IC50, LPS-induced TNFα release, Example 5, addition of 1 µM quercetin): 3.8 µM
- IC50 (BV2 microglial cells [1]; BV-2, read-out: CBD IC50, LPS-induced TNFα release, Example 5, addition of 2.5 µM quercetin): 3.2 µM
- IC50 (BV2 microglial cells [1]; BV-2, read-out: CBD IC50, LPS-induced TNFα release, Example 5, addition of 5 µM quercetin): 1.8 µM
- IC50 (BV2 microglial cells [1]; BV-2, read-out: CBD IC50, LPS-induced TNFα release, Example 6, addition of 1 µM CBDV): 3.4 µM
- IC50 (BV2 microglial cells [1]; BV-2, read-out: CBD IC50, LPS-induced TNFα release, Example 6, addition of 2.5 µM CBDV): 4.8 µM
- IC50 (BV2 microglial cells [1]; BV-2, read-out: CBD IC50, LPS-induced TNFα release, Example 6, addition of 5 µM CBDV): 2.7 µM
- IC50 (BV2 microglial cells [1]; BV-2, read-out: CBD IC50, LPS-induced TNFα release, Example 6, addition of 10 µM CBDV): 2.4 µM
- IC50 (BV2 microglial cells [1]; BV-2, read-out: IC50 for TNFα inhibition): 7.2 µM
- IC50 (BV2 microglial cells [1]; BV-2, read-out: IC50 for inhibiting LPS-induced TNFα release): 5.3 µM
- IC50 (BV2 microglial cells [1]; BV-2, read-out: IC50 for inhibiting LPS-induced TNFα release, Example 5 (FIG. 6C), by itself): 6.2 µM
- IC50 (BV2 microglial cells [1]; BV-2, read-out: IC50 for inhibiting LPS-induced TNFα release, Example 6 (FIG. 7C), by itself): 5.4 µM
- IL-1β levels (BV2 microglial cells [2]; Example 3, 5 and 10 µM): effectively reduced
- IL-1β secretion vs Veh plus LPS (BV2 microglial cells [2]; Example 4, by itself at 5 µM, not at 1 or 2.5 µM): effective in decreasing IL-1β
- IL-1β release vs Veh plus LPS (BV2 microglial cells [2]; Example 5, alone at 5 µM, no effect at 1 and 2.5 µM): decreased the IL-1β levels significantly
- LPS-induced IL-1β secretion (BV2 microglial cells [2]; Example 7, CBD 5 µM by itself (p<0.001)): significant suppression of IL-1β secretion
- LPS-induced IL-1β release (BV2 microglial cells [2]; Example 25, CannA, CannB 2.5, 5 and 10 µM, CBD, CannC 5 and 10 µM): significantly reduced
- IC50 (BV2 microglial cells [2]; BV-2, read-out: CBD IC50, LPS-induced IL-1β release, Example 4, addition of 1 µM kaempferol): 3.3 µM
- IC50 (BV2 microglial cells [2]; BV-2, read-out: CBD IC50, LPS-induced IL-1β release, Example 4, addition of 2.5 µM kaempferol): 2.1 µM
- IC50 (BV2 microglial cells [2]; BV-2, read-out: CBD IC50, LPS-induced IL-1β release, Example 4, addition of 5 µM kaempferol): 1.1 µM
- IC50 (BV2 microglial cells [2]; BV-2, read-out: CBD IC50, LPS-induced IL-1β release, Example 5, addition of 1 µM quercetin): 2.1 µM
- IC50 (BV2 microglial cells [2]; BV-2, read-out: CBD IC50, LPS-induced IL-1β release, Example 5, addition of 2.5 µM quercetin): 1.7 µM
- IC50 (BV2 microglial cells [2]; BV-2, read-out: CBD IC50, LPS-induced IL-1β release, Example 5, addition of 5 µM quercetin): 0.5 µM
- IC50 (BV2 microglial cells [2]; BV-2, read-out: IC50 for IL-1β inhibition, Example 25 (FIG. 25F), extracts calculated on dominant cannabinoid): 4.7 µM
- IC50 (BV2 microglial cells [2]; BV-2, read-out: IC50 for inhibiting LPS-induced IL-1β release, Example 4 (FIG. 5D), by itself): 4.5 µM
- IC50 (BV2 microglial cells [2]; BV-2, read-out: IC50 for inhibiting LPS-induced IL-1β release, Example 5 (FIG. 6D), by itself): 3.3 µM
